These results are taken from patent publication US9199941B2, “Pyrazole indanyl carboxamides” (BAYER CROPSCIENCE AG, priority 2012, dated 2015).

Molecules are shown by their SMILES. Where “and” joins values, the source holds several entries; their conditions need not be identical. Equal values may be shown once. Read-outs that look alike come from different tables or passages of the source.

Data set [1] can be described thus: log P by HPLC on reversed phase columns (EEC directive 79/831 Annex V.A8). The class given is physicochemical.
Data set [2] has as its system Puccinia recondita. Nature of the data set: In vivo preventive test on Puccinia recondita (brown rust on wheat). As to conditions: preventive spray, wheat plants, grading 12 days after contamination. As for the experimental part: Plants, used as controls, are treated with the mixture of acetone/tween/DMSO/water not containing the active material. After 24 hours, the plants are contaminated by spraying the leaves with an aqueous suspension of Puccinia […] spores (100 000 spores per ml). […] Grading (% of efficacy) is carried out 12 days after the contamination, in comparison with the control plants.

Data set [3] concerns Uromyces appendiculatus. Briefly: In vivo preventive test on Uromyces appendiculatus (bean rust). As to conditions: preventive spray, bean plants, grading 11 days after contamination. As for the experimental part:
Bean plants (“Saxa” variety), sown in starter cups on a 50/50 peat soil-pozzolana substrate and grown at 24° C., are treated at the 2-leaf stage (9 cm height) by spraying with the active ingredient prepared as described above. Plants, used as controls, are treated with the mixture of acetone/tween/DMSO/water not containing the active material. After 24 hours, the plants are contaminated by spraying the leaves with an aqueous suspension of Uromyces appendiculatus spores (150 000 spores per ml). […] Grading (% of efficacy) is carried out 11 days after the contamination, in comparison with the control plants.

Data set [4] deals with Sphaerotheca fuliginea. Briefly: In vivo preventive test on Sphaerotheca fuliginea (powdery mildew on cucurbits). As to conditions: preventive spray, gherkin plants, grading 12 days after contamination. As for the experimental part: Gherkin plants (“Vert petit de Paris” variety), sown in starter cups on a 50/50 peat soil-pozzolana substrate and grown at 24° C., are treated at the Z11 cotyledon stage by spraying with the active ingredient prepared as described above. Plants, used as controls, are treated with the mixture of acetone/tween/DMSO/water not containing the active material. After 24 hours, the plants are contaminated by spraying the cotyledons with an aqueous suspension of Sphaerotheca fuliginea spores (100 000 spores per ml). The spores are collected from infected plants. The contaminated gherkin plants are incubated at about 20° C. and at 70-80% relative humidity. Grading (% of efficacy) is carried out 12 days after the contamination, in comparison with the control plants.

The test system of data set [5] is Septoria tritici. Nature of the data set: In vivo preventive test on Septoria tritici (leaf spot on wheat). As to conditions: 500 ppm, preventive spray, wheat plants, grading 24 days after contamination. The protocol: Wheat plants (“Scipion” variety), sown in starter cups on a 50/50 peat soil-pozzolana substrate and grown at 22° C., are treated at the 1-leaf stage (10 cm height) by spraying with the active ingredient prepared as described above. Plants, used as controls, are treated with the mixture of acetone/tween/DMSO/water not containing the active material. After 24 hours, the plants are contaminated by spraying the leaves with an aqueous suspension of cryopreserved Septoria tritici spores (500 000 spores per ml). […] Grading (% of efficacy) is carried out 24 days after the contamination, in comparison with the control plants.

[6] abbreviates: Table 2, amines of formula (III-a), method [a]: LC-MS at pH 2.7, 0.1% formic acid in water / acetonitrile.
Setting [7] is: Table 1, compounds of formula (I), method [a]: LC-MS at pH 2.7, 0.1% formic acid in water / acetonitrile.

For orientation: logP means the decadic logarithm of the partition coefficient of the neutral form, usually between octanol and water. The low end stands for lower lipophilicity, the high end for higher lipophilicity.

For the compound `CC1CC(C(C)C)c2cccc(N)c21` (stereo not shown) [Example III-a-11], the logP in data set [1] (setting [6]) was 2.73[a].
Same read-out and setting: as for `CC1CC2(CC2(Cl)Cl)c2cccc(N)c21` (mixture of isomers) [Example III-a-1], the figure is 3.04 and 2.94; as for `CC(C)CC1CC(C)c2c(N)cccc21` (stereo not shown) [Example III-a-23], 3.42[a]; as for `CCC1(C)CCc2c(N)cccc21` (stereo not shown) [Example III-a-17], 1.88[a].
As for `Cc1nn(C)c(F)c1C(=O)Nc1cccc2c1CCC21CC1` [Example 15], the Eff. % worked out at 94% in data set [2] (500 ppm) and 100% in data set [3] (500 ppm).
For the compound `Cc1nn(C)c(F)c1C(=S)Nc1cccc2c1C(C)CC2CC(C)(C)C` (stereo not shown) [Example 43], the logP in data set [1] (setting [7]) is 4.87[a]. Also, the Eff. % amounted to 98% in data set [2] (500 ppm), 100% in data set [4] (500 ppm) and 100% in data set [3] (500 ppm).
With `Cn1cc(C(=O)Nc2cccc3c2CCC3O)c(C(F)F)n1` (stereo not shown) [Example 37], in data set [1] (setting [7]), the lipophilicity (logP) was 1.61[a].
On to `CC1CC(C)c2c(N)cccc21` (stereo not shown) [III-a-15], for which the log partition coefficient (logP) in data set [1] (setting [6]) is 1.76[a].
Still for that read-out and setting: then `CON=C1CCc2c(N)cccc21.Cl` [III-a-9], with 1.26[a].
In the case of `CC1CC2(CC2)c2cccc(NC(=O)c3c(C(F)(F)F)nn(C)c3F)c21` (stereo not shown) [Example 55], the lipophilicity (logP) in data set [1] (setting [7]) was 3.72[a]. The compound further had an Eff. % in data set [2] (100 ppm) of 85%.
Take `CC1CC(C(C)C)c2cccc(N)c21` (stereo not shown) [Example III-a-12]: the log partition coefficient (logP) in data set [1] (setting [6]) was 2.86[a].
Take `Cc1nn(C)c(F)c1C(=O)Nc1cccc2c1C(C)CC2CC(C)(C)C` (stereo not shown) [Example 35]: the lipophilicity (logP) in data set [1] (setting [7]) was 4.61[a]. The Eff. % is recorded as 98% in data set [2] (500 ppm), 100% in data set [4] (500 ppm) and 100% in data set [3] (500 ppm).
`CCON=C1CCc2c(N)cccc21.Cl` [III-a-10]: in data set [1] (setting [6]), the lipophilicity (logP) is 1.75[a].
In turn, `Cc1nn(C)c(C)c1C(=S)Nc1cccc2c1C(C)CC21CC1` (stereo not shown) [Example 39, 1,3,5-trimethyl-N-(3′-methyl-2′,3′-dihydrospiro[cyclopropane-1,1′-inden]-4′-yl)-1H-pyrazole-4-carbothioamide] yielded a chromatographic logP in data set [1] (pH 2.7) of 3.06. In addition, the Eff. % in data set [2] (500 ppm) is given as 89%; in data set [3] (500 ppm), 100%.
For `Cc1nn(C)c(C)c1C(=O)Nc1cccc2c1C(C)CC21CC1` (stereo not shown) [Example 22, 1,3,5-trimethyl-N-(3′-methyl-2′,3′-dihydrospiro[cyclopropane-1,1′-inden]-4′-yl)-1H-pyrazole-4-carboxamide] the same measures were 2.7, 81% and 100%.
Take `CC(C)(C)C1CCc2c(N)cccc21` (stereo not shown) [Example III-a-21]: in data set [1] (setting [6]), the logP was 2.4[a].
The same measure, in the same setting: then `CON=C1CC(C)c2c(N)cccc21.Cl` (stereo not shown) [III-a-20], with 1.76[a].
The same measure, in the same setting: then `Nc1cccc2c1CCC21CC1` [Example III-a-2], with 1.37[a].
For `CC1CC2(CC2)c2cccc(N)c21` (stereo not shown) [Example III-a-16, 3′-methyl-2′,3′-dihydrospiro[cyclopropane-1,1′-inden]-4′-amine], the chromatographic logP in data set [1] (reversed phase HPLC columns, Table 2, amines of formula (III-a), method [a]: LC-MS at pH 2.7, 0.1% formic acid in water / acetonitrile, read-out: logP) was 1.93.
Turning to `CCCON=C1CCc2c(N)cccc21.Cl` [III-a-7], the logP in data set [1] (setting [6]) is 2.26[a].
Same read-out and setting: as for `CC1CC(CC(C)(C)C)c2cccc(N)c21` (stereo not shown) [Example III-a-22], the figure is 3.83[a].
With `Cn1cc(C(=O)Nc2cccc3c2C(C)(C)CC3)c(C(F)F)n1` [Example 36], the log partition coefficient (logP) in data set [1] (setting [7]) was 2.8[a].
On to `CC1CC2(CC2)c2cccc(NC(=O)c3c(C4CC4)nn(C)c3Cl)c21` (stereo not shown) [Example 45], for which, in data set [1] (setting [7]), the log partition coefficient (logP) was 4.04[a].
For `Cc1c(C(=O)Nc2cccc3c2C(C)CC32CC2)cnn1C` (stereo not shown) [Example 48], in data set [1] (setting [7]), the logP was 2.55[a]. Moreover, the Eff. % in data set [2] (100 ppm) amounted to 98%; in data set [4] (100 ppm), 81%; in data set [3] (100 ppm), 100%.
With `CON=C1CC(C)c2c(NC(=O)c3cn(C)nc3C(F)F)cccc21` (stereo not shown) [Example 31], the logP in data set [1] (setting [7]) was 2.45[a]. The Eff. % in data set [5] stood at 79%; in data set [3] (500 ppm) it was 99%.
For `Cc1nn(C)c(C)c1C(=O)Nc1cccc2c1C(C)CC2C(C)(C)C` (stereo not shown) [Example 16], in data set [1] (setting [7]), the logP is 4.13[a]. In addition, the Eff. % worked out at 98% in data set [2] (500 ppm) and 100% in data set [3] (500 ppm).
On to `CCc1c(C(=O)Nc2cccc3c2C(C)CC32CC2)cnn1C` (stereo not shown) [Example 54], for which, in data set [1] (setting [7]), the logP is 2.99[a].
Take `CCON=C1CC(C)c2c(N)cccc21.Cl` (stereo not shown) [Example III-a-19]: in data set [1] (setting [6]), the logP is 2.26[a].
Regarding `CC1CC2(CCCC2)c2cccc(NC(=O)c3cn(C)nc3C(F)F)c21` (stereo not shown) [Example 49], in data set [1] (setting [7]), the lipophilicity (logP) was 4.31[a]. In data set [2] (100 ppm), this compound gave an Eff. % of 89%.
For `Cc1nn(C)c(Cl)c1C(=O)Nc1cccc2c1C(C)CC21CC1` (stereo not shown) [Example 47], the logP in data set [1] (setting [7]) is 3.44[a]. Further, the Eff. % is 95% in data set [2] (100 ppm) and 100% in data set [3] (100 ppm).
As for `Cc1nn(C)c(C)c1C(=O)Nc1cccc2c1CCC21CC1` [Example 13], the logP in data set [1] (setting [7]) is 2.57[a]. The Eff. % in data set [2] (500 ppm) came to 89%; in data set [3] (500 ppm) it was 100%.
Turning to `CON=C1CCc2c(NC(=O)c3cn(C)nc3C(F)F)cccc21` [Example 23], the logP in data set [1] (setting [7]) was 2.59[a]. Also, the Eff. % in data set [2] (500 ppm) was found to be 94%.
In the case of `CC(C)C1CCc2c(NC(=O)c3cn(C)nc3C(F)F)cccc21` (stereo not shown) [Example 2], the lipophilicity (logP) in data set [1] (setting [7]) is 3.6[a]. Further, the Eff. % in data set [2] (500 ppm) turned out to be 98%; in data set [4] (500 ppm), 94%; in data set [3] (500 ppm), 100%.
As for `Cc1nn(C)c(C)c1C(=O)Nc1cccc2c1C(C)CC2CC(C)C` (stereo not shown) [Example 14], the logP in data set [1] (setting [7]) was 3.87[a]. Besides, the values for the Eff. % in data set [2] (500 ppm) and in data set [3] (500 ppm) were 98% and 99%, respectively.
Regarding `CCCCON=C1CCc2c(NC(=O)c3cn(C)nc3C(F)F)cccc21` [Example 21], in data set [1] (setting [7]), the logP is 3.59[a]. In addition, the Eff. % in data set [5] is reported as 70%.
Take `CCc1nn(C)cc1C(=O)Nc1cccc2c1C(C)CC21CC1` (stereo not shown) [Example 51]: in data set [1] (setting [7]), the log partition coefficient (logP) was 2.99[a].
On to `Cn1cc(C(=O)Nc2cccc3c2CCC32CC2(Cl)Cl)c(C(F)F)n1` (stereo not shown) [Example 5], for which, in data set [1] (setting [7]), the logP was 3.33[a]. In addition, the Eff. % was 71% in data set [5], 100% in data set [4] (500 ppm) and 100% in data set [3] (500 ppm).
Regarding `CCCON=C1CC(C)c2c(N)cccc21.Cl` (stereo not shown) [Example III-a-18], the logP in data set [1] (setting [6]) is 2.78[a].
With `CC(C)CC1CCc2c(N)cccc21` (stereo not shown) [Example III-a-14], in data set [1] (setting [6]), the logP is 2.64[a].
`CC(C)c1nn(C)cc1C(=O)Nc1cccc2c1C(C)CC21CC1` (stereo not shown) [Example 56]: the logP in data set [1] (setting [7]) was 3.29[a].
Regarding `CC1CC2(CC2)c2cccc(NC(=O)c3cn(C)nc3C(F)(F)F)c21` (stereo not shown) [Example 10], the logP in data set [1] (setting [7]) is 3.35[a]. Further, the Eff. % in data set [2] (500 ppm) was 100%; in data set [3] (500 ppm) it was 99%.
As to `CCCCON=C1CCc2c(N)cccc21.Cl` [III-a-8], the logP in data set [1] (setting [6]) was 2.86[a].
With `Cc1nn(C)c(O)c1C(=O)Nc1cccc2c1CCC21CC1` [Example 26], the log partition coefficient (logP) in data set [1] (setting [7]) is 2.04[a]. The same compound displayed an Eff. % in data set [5] of 71%.
On to `CC1CCc2c(NC(=O)c3cn(C)nc3C(F)F)cccc21` (stereo not shown) [Example 50], for which the lipophilicity (logP) in data set [1] (setting [7]) is 3.01[a]. Also, in data set [2] (100 ppm), the Eff. % is 78%.
`Cc1nn(C)c(C)c1C(=S)Nc1cccc2c1C(C)CC2CC(C)C` (stereo not shown) [Example 40]: the logP in data set [1] (setting [7]) is 4.25[a]. Further, the values for the Eff. % in data set [2] (500 ppm) and in data set [3] (500 ppm) were 98% and 100%, respectively.
